Laboratory results taken from PMC12203311, “Design, synthesis, in silico and in vitro evaluation of pyrrole–indole hybrids as dual tubulin and aromatase inhibitors with potent anticancer activities” (RSC Advances, 2025).

Columns and labels:
MALME-3M = assay: NCI60 five-dose screen; format: cell-based; conditions: Homo sapiens, melanoma
Human CYP19 (aromatase) = molecular target: T1, Human CYP19 (aromatase) (Homo sapiens, UniProt P11511); assay: Aromatase inhibition assay (DBF fluorometric substrate); format: biochemical; conditions: active defined as IC50 < 12.5 µM
T1 construct: purchased GENTEST, Woburn, MA 456260; host or cells: baculovirus/insect cells
T1 sequence (P11511 1-503): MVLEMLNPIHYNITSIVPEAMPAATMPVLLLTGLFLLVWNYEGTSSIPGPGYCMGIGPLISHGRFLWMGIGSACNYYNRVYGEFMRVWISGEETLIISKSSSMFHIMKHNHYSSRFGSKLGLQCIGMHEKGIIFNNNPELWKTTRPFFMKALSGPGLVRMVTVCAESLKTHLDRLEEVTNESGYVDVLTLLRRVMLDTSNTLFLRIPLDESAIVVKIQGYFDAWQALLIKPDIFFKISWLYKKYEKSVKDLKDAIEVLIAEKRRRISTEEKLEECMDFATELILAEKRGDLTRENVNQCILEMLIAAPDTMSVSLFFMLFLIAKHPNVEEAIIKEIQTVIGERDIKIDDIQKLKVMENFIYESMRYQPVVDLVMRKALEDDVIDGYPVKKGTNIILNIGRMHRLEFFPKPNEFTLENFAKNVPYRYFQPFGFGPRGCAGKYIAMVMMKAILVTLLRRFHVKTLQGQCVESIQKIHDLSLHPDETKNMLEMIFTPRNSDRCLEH
Protocol: Aromatase enzyme was purchased from GENTEST, Woburn, MA01801, USA (Supersom human CYP19+oxidoreductase, baculovirus/insect cell-expressed; Product No. 456260). The aromatase inhibitory activity was performed using Human CYP19 enzymes and DBF as a fluorometric substrate as described by Stresser, et al.[41] with minor modifications. The mixture, containing 100 µL of cofactor/serial dilution buffer was pre-incubated in 37 °C for 10 min. […] After incubation at 37 °C for 30 min, the reaction was stopped by addition of 50 µL of 2.2 M NaOH. Fluorescence signal was monitored using an excitation wavelength of 490 nm and emission wavelength of 530 nm.

MDA-MB-231/ATCC = assay: NCI60 five-dose screen; format: cell-based; conditions: Homo sapiens, breast cancer
EKVX = assay: NCI60 five-dose screen; format: cell-based; conditions: Homo sapiens, NSC lung cancer
M14 = assay: NCI60 five-dose screen; format: cell-based; conditions: Homo sapiens, M14, melanoma
SK-OV-3 = assay: NCI60 five-dose screen; format: cell-based; conditions: Homo sapiens, SK-OV-3, ovarian cancer
RXF 393 = assay: NCI60 five-dose screen; format: cell-based; conditions: Homo sapiens, RXF 393, renal cancer
HS 578T = assay: NCI60 five-dose screen; format: cell-based; conditions: Homo sapiens, breast cancer
UACC-257 = assay: NCI60 five-dose screen; format: cell-based; conditions: Homo sapiens, UACC-257, melanoma
A549/ATCC = assay: NCI60 five-dose screen; format: cell-based; conditions: Homo sapiens, NSC lung cancer
MCF7 = assay: NCI60 five-dose screen; format: cell-based; conditions: Homo sapiens, MCF7, breast cancer
NCI-H522 = assay: NCI60 five-dose screen; format: cell-based; conditions: Homo sapiens, NCI-H522, NSC lung cancer
NCI-H322M = assay: NCI60 five-dose screen; format: cell-based; conditions: Homo sapiens, NSC lung cancer
OVCAR-8 = assay: NCI60 five-dose screen; format: cell-based; conditions: Homo sapiens, OVCAR-8, ovarian cancer
SW-620 = assay: NCI60 five-dose screen; format: cell-based; conditions: Homo sapiens, SW-620, colon cancer
NCI-H460 = assay: NCI60 five-dose screen; format: cell-based; conditions: Homo sapiens, NCI-H460, NSC lung cancer
SF-539 = assay: NCI60 five-dose screen; format: cell-based; conditions: Homo sapiens, SF-539, CNS cancer
MOLT-4 = assay: NCI60 five-dose screen; format: cell-based; conditions: Homo sapiens, MOLT-4, leukemia
DU-145 = assay: NCI60 five-dose screen; format: cell-based; conditions: Homo sapiens, DU-145, prostate cancer
SNB-19 = assay: NCI60 five-dose screen; format: cell-based; conditions: Homo sapiens, SNB-19, CNS cancer
NCI/ADR-RES = assay: NCI60 five-dose screen; format: cell-based, human; conditions: Homo sapiens, ovarian cancer
OVCAR-4 = assay: NCI60 five-dose screen; format: cell-based; conditions: Homo sapiens, OVCAR-4, ovarian cancer
MDA-MB-435 = assay: NCI60 five-dose screen; format: cell-based, human; conditions: Homo sapiens
K-562 = assay: NCI60 five-dose screen; format: cell-based; conditions: Homo sapiens, K562, K-562, leukemia
KM12 = assay: NCI60 five-dose screen; format: cell-based; conditions: Homo sapiens, KM12, colon cancer
NCI-H226 = assay: NCI60 five-dose screen; format: cell-based; conditions: Homo sapiens, NCI-H226, NSC lung cancer
HCT-15 = assay: NCI60 five-dose screen; format: cell-based; conditions: Homo sapiens, HCT-15, colon cancer
[1] = read-out: LC50 (the source's name)

Work on `O=C(N/N=C/c1cc(Br)c(Br)[nH]1)c1[nH]c2ccc(Br)cc2c1-c1ccccc1` [Derivative 3f, (E)-5-Bromo-N′-((4,5-dibromo-1H-pyrrol-2-yl)methylene)-3-phenyl-1H-indole-2-carbohydrazide] yielded a GI50 (MALME-3M) of 2.97 µM, a CC50 (MALME-3M; [1]) of 42.4 µM and an IC50 (Human CYP19 (aromatase)) of 1.5 ± 0.3 µM. For the same compound, the GI50 (MDA-MB-231/ATCC) was 2.49 µM, the CC50 (MDA-MB-231/ATCC; [1]) was 26.3 µM and the GI50 (EKVX) was 3.45 µM. The CC50 (EKVX; [1]) was 44.8 µM, the GI50 (M14) was 2.81 µM and the CC50 (M14; [1]) was 66.1 µM. The GI50 (SK-OV-3) was 4.76 µM, the CC50 (SK-OV-3; [1]) was 72.5 µM and the GI50 (RXF 393) was 1.55 µM. The CC50 (RXF 393; [1]) was 34.3 µM, the GI50 (HS 578T) was 1.82 µM and the CC50 (HS 578T; [1]) was greater than 100 µM. For the same compound, the GI50 (UACC-257) was 3.24 µM, the CC50 (UACC-257; [1]) was 45.7 µM and the GI50 (A549/ATCC) was 3.11 µM. The CC50 (A549/ATCC; [1]) was 37.6 µM, the GI50 (MCF7) was 1.99 µM and the CC50 (MCF7; [1]) was 33.7 µM. It also gave a GI50 (NCI-H522) of 0.623 µM, a CC50 (NCI-H522; [1]) of 23.2 µM and a GI50 (NCI-H322M) of 3.73 µM. For the same compound, the CC50 (NCI-H322M; [1]) was 62.8 µM, the GI50 (OVCAR-8) was 1.98 µM and the CC50 (OVCAR-8; [1]) was 17.2 µM. For the same compound, the GI50 (SW-620) was 2.96 µM, the CC50 (SW-620; [1]) was 41.9 µM and the GI50 (NCI-H460) was 2.53 µM. For the same compound, the CC50 (NCI-H460; [1]) was 32.7 µM, the GI50 (SF-539) was 1.78 µM and the CC50 (SF-539; [1]) was 15.7 µM. The GI50 (MOLT-4) was 3.38 µM, the CC50 (MOLT-4; [1]) was greater than 100 µM and the GI50 (DU-145) was 3.18 µM. The CC50 (DU-145; [1]) was 33.9 µM, the GI50 (SNB-19) was 3.47 µM and the CC50 (SNB-19; [1]) was 39.3 µM. The GI50 (NCI/ADR-RES) was 1.14 µM, the CC50 (NCI/ADR-RES; [1]) was 9.73 µM and the GI50 (OVCAR-4) was 5.2 µM. For the same compound, the CC50 (OVCAR-4; [1]) was 45.8 µM, the CC50 (MDA-MB-435; MDA-MB-435, MDA-MB-435, melanoma, read-out: LC50 (the source's name)) was 19.6 µM and the GI50 (MDA-MB-435; MDA-MB-435, melanoma) was 1.01 µM. For the same compound, the GI50 (K-562) was 1.93 µM, the CC50 (K-562; [1]) was 76.4 µM and the GI50 (KM12) was 2.46 µM. For the same compound, the CC50 (KM12; [1]) was 35.3 µM, the GI50 (NCI-H226) was 2.28 µM and the CC50 (NCI-H226; [1]) was 32.5 µM. For the same compound, the GI50 (HCT-15) was 2.7 µM and the CC50 (HCT-15; [1]) was 33.1 µM.
